Source: patent publication US6355799B1, “Substituted benzene compounds, process for their preparation, and herbicidal and defoliant compositions containing them” (ISK Americas Incorporated, priority 1997, dated 2002)

Key:
Assay type in all cases: in vivo
[1] = test system: common ragweed (Ambrosia artemisizfolia L., AMBEL); test: Pre-emerge test, greenhouse herbicide activity screening; conditions: rated 14 days after application, 0 = no damage, 100 = complete death
In short: (§1)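 Sandy loam pots; pre-emerge: sown 1 d pre-spray, surface-watered after, then bottom-watered. Post-emerge: sown 8–21 d before, 2–3 leaf stage, + 0.25% v/v NIS, bottom-watered. Acetone, 187 l/ha track spray, 15–1000 g ai/ha. 0–100 injury score, day 14.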

[2] = test system: ivyleaf morningglory (Ipomoea hederacea, IPOHE); test: as above; conditions: rated 14 days after application, 0 = no damage, 100 = complete death
In short: as §1

[3] = test system: green foxtail (Setaria viridis, SETVI); test: as above; conditions: rated 14 days after application, 0 = no damage, 100 = complete death
In short: as §1

[4] = test system: sicklepod (Cassia obtusifolia, CASOB); test: as above; conditions: rated 14 days after application, 0 = no damage, 100 = complete death
In short: as §1

[5] = test system: lambsquarters (Chenopodium album, CHEAL); test: as above; conditions: rated 14 days after application, 0 = no damage, 100 = complete death
In short: as §1

[6] = test system: velvetleaf (Abutilon theophrasti, ABUTH); test: as above; conditions: rated 14 days after application, 0 = no damage, 100 = complete death
In short: as §1

[7] = test system: barnyardgrass (Echinochloa crus-galli, ECHCG); test: as above; conditions: rated 14 days after application, 0 = no damage, 100 = complete death
In short: as §1

[8] = test system: large crabgrass (Digitaria sanguinalis, DIGSA); test: as above; conditions: rated 14 days after application, 0 = no damage, 100 = complete death
In short: as §1

[9] = test system: johnsongrass (Sorghum halepense, SORHA); test: as above; conditions: rated 14 days after application, 0 = no damage, 100 = complete death
In short: as §1

[10] = test system: redroot pigweed (Amaranthus retroflexus, AMARE); test: as above; conditions: rated 14 days after application, 0 = no damage, 100 = complete death
In short: (§2)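 Compounds in acetone were track-sprayed at 187 l/ha, 15–1000 g ai/ha, onto sandy loam pots. Pre-emerge seeds were sown one day before spraying, with surface watering afterwards. Post-emerge plants were at the 2–3 leaf stage and sprayed with 0.25% v/v non-ionic surfactant. Injury was rated 0–100 at 14 days.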

[11] = test system: common ragweed (Ambrosia artemisizfolia L., AMBEL); test: Post-emerge test, greenhouse herbicide activity screening; conditions: post-emerge, 14 days after application, rating scale 0-100
In short: as §2

[12] = test system: ivyleaf morningglory (Ipomoea hederacea, IPOHE); test: as above; conditions: post-emerge, 14 days after application, rating scale 0-100
In short: as §2

[13] = test system: green foxtail (Setaria viridis, SETVI); test: as above; conditions: post-emerge, 14 days after application, rating scale 0-100
In short: as §2

[14] = test system: sicklepod (Cassia obtusifolia, CASOB); test: as above; conditions: post-emerge, 14 days after application, rating scale 0-100
In short: as §2

[15] = test system: lambsquarters (Chenopodium album, CHEAL); test: as above; conditions: post-emerge, 14 days after application, rating scale 0-100
In short: as §2

[16] = test system: velvetleaf (Abutilon theophrasti, ABUTH); test: as above; conditions: post-emerge, 14 days after application, rating scale 0-100
In short: as §2

[17] = test system: barnyardgrass (Echinochloa crus-galli, ECHCG); test: as above; conditions: post-emerge, 14 days after application, rating scale 0-100
In short: as §2

[18] = test system: large crabgrass (Digitaria sanguinalis, DIGSA); test: as above; conditions: post-emerge, 14 days after application, rating scale 0-100
In short: as §2

[19] = test system: johnsongrass (Sorghum halepense, SORHA); test: as above; conditions: post-emerge, 14 days after application, rating scale 0-100
In short: as §2

[20] = test system: redroot pigweed (Amaranthus retroflexus, AMARE); test: as above; conditions: post-emerge, 14 days after application, rating scale 0-100
In short: as §2

[21] = test system: upland rice (Oryza sp., var. Tebonnet, RICE); test: Post-emerge test, crop safety; conditions: post-emerge, 14 days after application, rating scale 0-100
In short: as §1

[22] = test system: field corn (Zea mays L., var. Dekalb 535, CORN); test: Post-emerge test, crop safety; conditions: post-emerge, 14 days after application, rating scale 0-100
In short: as §1

[23] = test system: upland rice (Oryza sp., var. Tebonnet, RICE); test: Pre-emerge test, crop safety; conditions: rated 14 days after application, 0 = no damage, 100 = complete death
In short: (§3)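 Compounds in acetone were track-sprayed at 15-1000 g ai/ha (187 l/ha) on sandy loam pots: pre-emerge one day after seeding, post-emerge at 2-3 leaf stage with 0.25% v/v non-ionic surfactant. Phytotoxicity was rated 14 days later on a 0 (no damage) to 100 (complete death) scale.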

[24] = test system: field corn (Zea mays L., var. Dekalb 535, CORN); test: Pre-emerge test, crop safety; conditions: rated 14 days after application, 0 = no damage, 100 = complete death
In short: as §3

COc1c(Cl)cc(F)c(-n2c(=O)cc(C(F)(F)F)n(C)c2=O)c1N(C(=O)c1ccc(Cl)nc1)C(=O)c1ccc(Cl)nc1 [2-100]
Pre-emerge Herbicidal Activity, phytotoxicity rating (0-100), AMBEL ([1]; 63 g ai/ha): 90 | Pre-emerge Herbicidal Activity, phytotoxicity rating (0-100), AMBEL ([1]; 250 g ai/ha): 100 | Pre-emerge Herbicidal Activity, phytotoxicity rating (0-100), IPOHE ([2]; 63 g ai/ha): 100 | Pre-emerge Herbicidal Activity, phytotoxicity rating (0-100), IPOHE ([2]; 250 g ai/ha): 100 | Pre-emerge Herbicidal Activity, phytotoxicity rating (0-100), SETVI ([3]; 63 g ai/ha): 100 | Pre-emerge Herbicidal Activity, phytotoxicity rating (0-100), SETVI ([3]; 250 g ai/ha): 100 | Pre-emerge Herbicidal Activity, phytotoxicity rating (0-100), CASOB ([4]; 63 g ai/ha): 30 | Pre-emerge Herbicidal Activity, phytotoxicity rating (0-100), CASOB ([4]; 250 g ai/ha): 100 | Pre-emerge Herbicidal Activity, phytotoxicity rating (0-100), CHEAL ([5]; 63 g ai/ha): 100 | Pre-emerge Herbicidal Activity, phytotoxicity rating (0-100), CHEAL ([5]; 250 g ai/ha): 100 | Pre-emerge Herbicidal Activity, phytotoxicity rating (0-100), ABUTH ([6]; 63 g ai/ha): 100 | Pre-emerge Herbicidal Activity, phytotoxicity rating (0-100), ABUTH ([6]; 250 g ai/ha): 100 | Pre-emerge Herbicidal Activity, phytotoxicity rating (0-100), ECHCG ([7]; 63 g ai/ha): 70 | Pre-emerge Herbicidal Activity, phytotoxicity rating (0-100), ECHCG ([7]; 250 g ai/ha): 90 | Pre-emerge Herbicidal Activity, phytotoxicity rating (0-100), DIGSA ([8]; 63 g ai/ha): 90 | Pre-emerge Herbicidal Activity, phytotoxicity rating (0-100), DIGSA ([8]; 250 g ai/ha): 100 | Pre-emerge Herbicidal Activity, phytotoxicity rating (0-100), SORHA ([9]; 63 g ai/ha): 85 | Pre-emerge Herbicidal Activity, phytotoxicity rating (0-100), SORHA ([9]; 250 g ai/ha): 100 | Pre-emerge Herbicidal Activity, phytotoxicity rating (0-100), AMARE ([10]; 63 g ai/ha): 100 | Pre-emerge Herbicidal Activity, phytotoxicity rating (0-100), AMARE ([10]; 250 g ai/ha): 100 | phytotoxicity rating AMBEL ([11]; 63 g ai/ha): 70 | phytotoxicity rating AMBEL ([11]; 250 g ai/ha): 90 | phytotoxicity rating IPOHE ([12]; 63 g ai/ha): 100 | phytotoxicity rating IPOHE ([12]; 250 g ai/ha): 100 | phytotoxicity rating SETVI ([13]; 63 g ai/ha): 60 | phytotoxicity rating SETVI ([13]; 250 g ai/ha): 70 | phytotoxicity rating CASOB ([14]; 63 g ai/ha): 70 | phytotoxicity rating CASOB ([14]; 250 g ai/ha): 60 | phytotoxicity rating CHEAL ([15]; 63 g ai/ha): 80 | phytotoxicity rating CHEAL ([15]; 250 g ai/ha): 80 | phytotoxicity rating ABUTH ([16]; 63 g ai/ha): 100 | phytotoxicity rating ABUTH ([16]; 250 g ai/ha): 100 | phytotoxicity rating ECHCG ([17]; 63 g ai/ha): 0 | phytotoxicity rating ECHCG ([17]; 250 g ai/ha): 30 | phytotoxicity rating DIGSA ([18]; 63 g ai/ha): 0 | phytotoxicity rating DIGSA ([18]; 250 g ai/ha): 20 | phytotoxicity rating SORHA ([19]; 63 g ai/ha): 0 | phytotoxicity rating SORHA ([19]; 250 g ai/ha): 60 | phytotoxicity rating AMARE ([20]; 63 g ai/ha): 80 | phytotoxicity rating AMARE ([20]; 250 g ai/ha): 100 | phytotoxicity rating RICE ([21]; 63 g ai/ha): 45 | phytotoxicity rating RICE ([21]; 250 g ai/ha): 70 | phytotoxicity rating CORN ([22]; 63 g ai/ha): 15 | phytotoxicity rating CORN ([22]; 250 g ai/ha): 80 | Pre-emerge phytotoxicity rating (0-100), crop damage, RICE ([23]; 63 g ai/ha): 75 | Pre-emerge phytotoxicity rating (0-100), crop damage, RICE ([23]; 250 g ai/ha): 90 | Pre-emerge phytotoxicity rating (0-100), crop damage, CORN ([24]; 63 g ai/ha): 45 | Pre-emerge phytotoxicity rating (0-100), crop damage, CORN ([24]; 250 g ai/ha): 95
